Values quoted from earlier work in patent US5569647A, “Angiopeptin cyclopeptide compounds” (Adir et Compagnie, priority 1993, dated 1996).

Test system: cells of the vascular smooth muscle
Settings: rat carotid artery, desiccation of the endothelium in air

## angiopeptin
  anti-proliferative effect in vivo on cells of the vascular smooth muscle: anti-proliferative effect in vivo
